pIC50: −log10 of the molar value. Calls of active or inactive are those of the source. The rule behind the calls is not given here.
Key:
[1] = Acute toxicity in ICR mouse assessed as change in body weight at 1000 mg/kg, po measured after 7 days; format: organism-based; settings: in vivo, 168 h, time 7 day
CT26 = experiment: Antitumor activity in immunocompetent Balb/c mouse CT26 cell bearing mouse model assessed as change in tumor cell morphology at 6.25 to 25 mg/kg, IG treated twice a day measured after 14 days by hematoxylin and eosin staining based assay; format: functional, organism-based; settings: dose lower 6.25 mg/kg, dose upper […], time 14.0 day
[2] = target: T1, Protein mono-ADP-ribosyltransferase TIPARP (Mus musculus) (UniProt Q8C1B2); experiment: Inhibition of PARP7 in mouse CT26 cells assessed as increase in STAT1 phosphorylation incubated for 3 days by Western blot analysis; format: cell-based; settings: dose 0.14-4 µM, time 3.0 day
T1 sequence (whole entry): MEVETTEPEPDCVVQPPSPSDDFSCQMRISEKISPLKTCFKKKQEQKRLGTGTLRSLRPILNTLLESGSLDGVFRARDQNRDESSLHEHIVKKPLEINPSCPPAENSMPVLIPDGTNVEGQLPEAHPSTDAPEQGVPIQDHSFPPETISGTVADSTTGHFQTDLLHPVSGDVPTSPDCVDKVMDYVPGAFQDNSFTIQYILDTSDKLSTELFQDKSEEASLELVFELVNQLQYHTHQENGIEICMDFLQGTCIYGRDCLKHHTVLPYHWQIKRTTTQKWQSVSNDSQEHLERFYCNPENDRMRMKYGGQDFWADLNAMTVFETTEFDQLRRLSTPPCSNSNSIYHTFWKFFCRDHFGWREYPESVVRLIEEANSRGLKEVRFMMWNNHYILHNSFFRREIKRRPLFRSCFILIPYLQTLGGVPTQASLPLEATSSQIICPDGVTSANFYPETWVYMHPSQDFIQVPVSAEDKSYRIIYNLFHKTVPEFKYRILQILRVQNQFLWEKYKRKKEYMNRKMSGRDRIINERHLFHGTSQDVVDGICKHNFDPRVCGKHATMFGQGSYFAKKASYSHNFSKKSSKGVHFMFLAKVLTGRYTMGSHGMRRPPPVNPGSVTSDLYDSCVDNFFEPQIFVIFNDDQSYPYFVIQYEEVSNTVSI

[3] = Oral bioavailability in ICR mouse at 10 mg/kg measured upto 24 hrs by LC-MS/MS analysis; format: ADME, organism-based; settings: in vivo
[4] = Cmax in ICR mouse at 1 mg/kg, iv measured upto 24 hrs by LC-MS/MS analysis; format: ADME, organism-based; settings: in vivo
[5] = target: T1, Protein mono-ADP-ribosyltransferase TIPARP (Mus musculus); experiment: Inhibition of PARP7 in mouse CT26 cells assessed as increase in TBK1 phosphorylation incubated for 3 days by Western blot analysis; format: cell-based; settings: dose 0.14-4 µM, time 3.0 day
[6] = target: T2, Protein mono-ADP-ribosyltransferase PARP10 (Homo sapiens, UniProt Q53GL7); experiment: Inhibition of PARP10 (unknown origin) measured after 1 hr incubation by microplate reader assay
T2 sequence (Q53GL7 whole entry): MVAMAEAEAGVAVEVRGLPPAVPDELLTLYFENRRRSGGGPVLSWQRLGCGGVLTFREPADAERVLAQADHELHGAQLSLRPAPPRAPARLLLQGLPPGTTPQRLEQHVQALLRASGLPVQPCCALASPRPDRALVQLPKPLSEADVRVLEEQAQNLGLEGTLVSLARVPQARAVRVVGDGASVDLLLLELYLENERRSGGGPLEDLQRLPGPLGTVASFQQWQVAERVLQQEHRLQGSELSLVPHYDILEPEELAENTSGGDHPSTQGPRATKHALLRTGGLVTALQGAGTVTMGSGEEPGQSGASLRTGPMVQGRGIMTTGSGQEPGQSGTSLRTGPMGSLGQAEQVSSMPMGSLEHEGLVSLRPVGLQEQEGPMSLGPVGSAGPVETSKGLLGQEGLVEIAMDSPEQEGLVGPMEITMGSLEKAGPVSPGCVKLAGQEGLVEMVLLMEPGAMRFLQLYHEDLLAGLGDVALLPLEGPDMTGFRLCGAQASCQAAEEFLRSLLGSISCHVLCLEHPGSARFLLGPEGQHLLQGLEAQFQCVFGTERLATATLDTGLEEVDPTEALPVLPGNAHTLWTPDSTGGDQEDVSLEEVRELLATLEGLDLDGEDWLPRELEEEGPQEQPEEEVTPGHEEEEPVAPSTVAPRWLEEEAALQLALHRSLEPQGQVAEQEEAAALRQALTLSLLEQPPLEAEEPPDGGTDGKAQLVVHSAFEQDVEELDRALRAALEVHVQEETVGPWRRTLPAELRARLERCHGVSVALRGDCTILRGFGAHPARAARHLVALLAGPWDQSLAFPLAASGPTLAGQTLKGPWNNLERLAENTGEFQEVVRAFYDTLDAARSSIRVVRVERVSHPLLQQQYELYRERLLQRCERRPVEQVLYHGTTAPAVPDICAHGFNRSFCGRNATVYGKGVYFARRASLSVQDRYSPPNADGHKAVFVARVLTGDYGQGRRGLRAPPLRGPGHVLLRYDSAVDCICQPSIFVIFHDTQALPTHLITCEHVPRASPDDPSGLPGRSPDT

[7] = Toxicity in Balb/c mouse bearing mouse CT26 cells assessed as body weight change at 6.25 to 25 mg/kg, IG measured after 14 days; format: organism-based; settings: in vivo, po, 336 h, dose 6.25-25 mg/kg, time 14 day
CYP3A4/5 = CYP3A4/5 (Homo sapiens, UniProt P08684+P20815); experiment: Inhibition of CYP3A4/5 (unknown origin); format: ADME, protein assay
Cytochrome P450 2D6 = Cytochrome P450 2D6 (Homo sapiens, UniProt P10635); experiment: Inhibition of CYP2D6 (unknown origin); format: ADME
Chain of Cytochrome P450 2D6 (P10635 whole entry): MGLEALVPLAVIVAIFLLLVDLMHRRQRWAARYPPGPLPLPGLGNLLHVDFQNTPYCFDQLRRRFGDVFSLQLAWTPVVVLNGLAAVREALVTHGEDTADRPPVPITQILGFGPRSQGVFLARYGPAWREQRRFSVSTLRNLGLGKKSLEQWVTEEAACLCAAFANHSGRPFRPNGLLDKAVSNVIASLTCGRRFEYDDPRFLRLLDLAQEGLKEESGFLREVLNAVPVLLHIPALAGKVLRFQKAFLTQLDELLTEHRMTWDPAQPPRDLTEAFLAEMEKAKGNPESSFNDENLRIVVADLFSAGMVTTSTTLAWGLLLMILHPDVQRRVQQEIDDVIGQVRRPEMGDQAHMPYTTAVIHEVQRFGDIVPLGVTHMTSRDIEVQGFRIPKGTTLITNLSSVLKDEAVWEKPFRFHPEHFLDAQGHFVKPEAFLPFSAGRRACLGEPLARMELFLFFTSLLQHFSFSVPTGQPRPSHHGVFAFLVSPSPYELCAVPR

C[C@@H](C(=O)N1CCN(c2ncc(C(F)(F)F)cn2)CC1)n1cc2cccc(C(N)=O)c2n1
Activity [1]: Non-Toxic | Activity (CT26): Active | inhibition [2]: Dose-Dependent Effect | bioavailability [3]: 94.6% | Cmax [4]: 1360 ng/mL | inhibition [5]: Dose-Dependent Effect | pIC50 [6]: 6.42 | Activity [7]: Non-Toxic | pIC50 (CYP3A4/5): < 4.52 | pIC50 (Cytochrome P450 2D6): < 4.52
